We go through four molecules from ChEMBL document CHEMBL2346597, “Use of core modification in the discovery of CC214-2, an orally available, selective inhibitor of mTOR kinase” (Bioorg Med Chem Lett, 2013).

For orientation: IC50 means the concentration that gives 50% inhibition. One may read the Cmax as the peak of the concentration-time curve. Usually bioavailability stands for dose-corrected exposure relative to a reference, in per cent. As usually defined, the AUC(0-inf) is the area under the concentration-time curve extrapolated to infinity. One may read the clearance as the volume of plasma or blood freed of the substance per unit of time. For orientation: MRT means a mean duration of stay, worked out from the concentration-time curve. A word on the Tmax: it is the time from dosing to the highest level.

The source made the active and inactive calls. The calls are words filed in the database; no cut-off is given here.

Data set [1] addresses Phosphatidylinositol 4,5-bisphosphate 3-kinase catalytic subunit alpha isoform (Homo sapiens, UniProt P42336). The experiment in a line: Inhibition of PI3Kalpha (unknown origin) by mobility shift assay.
Data set [2] relates to PC-3. Briefly: cells. The note with it: Homo sapiens, PC-3, 72 h.
The next data set concerns the target mTORC1 (Homo sapiens, UniProt P42345). The experiment in a line: Inhibition of mTORC1 in human PC3 cells assessed as inhibition of S6 phosphorylation after 1 hr by sandwich immunoassay. The data set is classed as cell-based, PC-3.
Data set [3] can be described thus: Inhibition of mTORC2 in human PC3 cells assessed as inhibition of AKTS473 phosphorylation after 1 hr by sandwich immunoassay. The data set is classed as cell-based. The note with it: PC-3, 1 h.
Data set [4] has as its system Mus musculus. Briefly: In vivo inhibition of mTORC2 in human PC3 cells xenografted in CB17 SCID mouse assessed as inhibition of AKTS473 phosphorylation at 30 mg/kg, po qd after 2 to 8 hrs relative to vehicle-treated control. As to conditions: CB17, PC-3, po. For orientation: A xenograft is tissue or cells of one species grown in another, often human tumour cells in immunodeficient mice.

Data set [5] has as its system Plasma. Briefly: Free plasma concentration in CB17 SCID mouse xenografted with human PC3 cells at 30 mg/kg, po qd at 4 hrs. The note with it: in vivo. Details: dose 30 mg/kg, route oral. The format is ADME, organism-based, PC-3.
The subject of data set [6] is Mus musculus. The experiment in a line: In vivo inhibition of mTORC2 in human PC3 cells xenografted in CB17 SCID mouse assessed as inhibition of AKTS473 phosphorylation at 30 mg/kg, po qd measured at 24 hrs relative to vehicle-treated control. As to conditions: CB17, PC-3, po.
Data set [7] can be described thus: Cmax in rat at 5 mg/kg, po. The data set is classed as ADME, organism-based. Also on record: dose 5 mg/kg, route oral. The note with it: in vivo.
Data set [8] deals with Mus musculus. Briefly: In vivo inhibition of mTORC1 in human PC3 cells xenografted in CB17 SCID mouse assessed as inhibition of S6 phosphorylation at 30 mg/kg, po qd measured at 24 hrs relative to vehicle-treated control. The data set is classed as functional. The note with it: CB17, PC-3, 24 h.
Data set [9] has as its system Plasma. The experiment in a line: Free plasma concentration in CB17 SCID mouse xenografted with human PC3 cells at 30 mg/kg, po qd at 2 hrs. The data set is classed as ADME, organism-based, PC-3. Details: dose 30 mg/kg, route oral. As to conditions: in vivo.
The nature of data set [10]: Drug uptake in tumor of CB17 SCID mouse xenografted with human PC3 cells at 30 mg/kg, po qd at 8 hrs. The data set is classed as ADME, organism-based, Neoplasm, PC-3. Details: dose 30 mg/kg, route oral. As to conditions: read-out: Drug uptake.
In data set [11] the test system is Plasma. The experiment in a line: Free plasma concentration in CB17 SCID mouse xenografted with human PC3 cells at 30 mg/kg, po qd at 8 hrs. The data set is classed as ADME, organism-based, PC-3. Details: dose 30 mg/kg, route oral. As to conditions: in vivo.
The test system of data set [12] is Plasma. Briefly: Free plasma concentration in CB17 SCID mouse xenografted with human PC3 cells at 30 mg/kg, po qd at 24 hrs. The data set is classed as ADME, organism-based, PC-3. Details: dose 30 mg/kg, route oral. The note with it: in vivo.
For data set [13], the system named is Mus musculus. The experiment in a line: Toxicity in CB17 SCID mouse xenografted with human PC3 cells at 10 to 50 mg/kg, po qd administered on day 11 post tumor implantation measured after 32 days. The format is organism-based, PC-3. Details: dose 10-50 mg/kg, route oral. The note with it: in vivo.
The nature of data set [14]: Drug uptake in tumor of CB17 SCID mouse xenografted with human PC3 cells at 30 mg/kg, po qd at 4 hrs. Also on record: dose 30 mg/kg, route oral. The data set is classed as ADME, organism-based, Neoplasm, PC-3. As to conditions: read-out: Drug uptake.
A short description of data set [15]: Oral bioavailability in rat at 5 mg/kg. The data set is classed as ADME, organism-based. As to conditions: in vivo.
Data set [16] is described as follows: AUC (0 to infinity) in rat at 5 mg/kg, po. As to conditions: plasma. The format is ADME, organism-based. Details: time infinity, dose 5 mg/kg, route oral.
A short description of data set [17]: Clearance in rat at 2 mg/kg, iv. The data set is classed as ADME, organism-based. Details: dose 2 mg/kg, route intravenous. The note with it: in vivo.
Data set [18] deals with PC-3. The note with it: Homo sapiens.
Data set [19] in a line: Plasma concentration in CB17 SCID mouse xenografted with human PC3 cells at 30 mg/kg, po qd at 8 hrs. Details: dose 30 mg/kg, route oral. The data set is classed as ADME, organism-based, PC-3.
Data set [20] can be described thus: Drug uptake in tumor of CB17 SCID mouse xenografted with human PC3 cells at 30 mg/kg, po qd at 24 hrs. The data set is classed as ADME, organism-based, Neoplasm, PC-3. Details: dose 30 mg/kg, route oral. As to conditions: read-out: Drug uptake.
For data set [21], the system named is PC-3. As to conditions: Homo sapiens. This is another data set of the same source.
Data set [22] in a line: Plasma concentration in CB17 SCID mouse xenografted with human PC3 cells at 30 mg/kg, po qd at 2 hrs. The data set is classed as ADME, organism-based, PC-3. Also on record: dose 30 mg/kg, route oral.
The subject of data set [23] is PC-3. As to conditions: Homo sapiens. The source holds these as a separate data set.
Data set [24] can be described thus: Plasma concentration in CB17 SCID mouse xenografted with human PC3 cells at 30 mg/kg, po qd at 24 hrs. The format is ADME, organism-based, PC-3. Also on record: dose 30 mg/kg, route oral.
The nature of data set [25]: Drug uptake in tumor of CB17 SCID mouse xenografted with human PC3 cells at 30 mg/kg, po qd at 2 hrs. The format is ADME, organism-based, Neoplasm, PC-3. Details: dose 30 mg/kg, route oral. As to conditions: read-out: Drug uptake.
The nature of data set [26]: Mean residence time in rat at 2 mg/kg, iv. The data set is classed as ADME, organism-based. Also on record: dose 2 mg/kg, route intravenous. The note with it: in vivo.
Data set [27] relates to PC-3. The experiment in a line: Antitumor activity against human PC3 cells xenografted in CB17 SCID mouse assessed as tumor growth inhibition at 25 mg/kg, po qd administered on day 11 post tumor implantation measured after 32 days relative to vehicle-treated control. The data set is classed as functional. The note with it: read-out: TGI.
Data set [28] in a line: AUC (0 to infinity) in rat at 2 mg/kg, iv. The format is ADME, organism-based. Details: time infinity, dose 2 mg/kg, route intravenous. The note with it: plasma.
Data set [29] in a line: Volume of distribution at steady state in rat at 2 mg/kg, iv. The format is ADME, organism-based. Also on record: dose 2 mg/kg, route intravenous. The note with it: in vivo, read-out: Vdss.
Data set [30] concerns PC-3. As to conditions: Homo sapiens. The source holds these as a separate data set.
Data set [31] can be described thus: Tmax in rat at 5 mg/kg, po. The data set is classed as ADME, organism-based. Also on record: dose 5 mg/kg, route oral. The note with it: in vivo.
The subject of data set [32] is PC-3. The experiment in a line: Antitumor activity against human PC3 cells xenografted in CB17 SCID mouse assessed as tumor growth inhibition at 10 mg/kg, po qd administered on day 11 post tumor implantation measured after 32 days relative to vehicle-treated control. The note with it: read-out: TGI. The data set is classed as functional.
Data set [33] concerns Mus musculus. The experiment in a line: In vivo inhibition of mTORC1 in human PC3 cells xenografted in CB17 SCID mouse assessed as inhibition of S6 phosphorylation at 30 mg/kg, po qd after 2 to 8 hrs relative to vehicle-treated control. The format is functional. As to conditions: CB17, PC-3.
Data set [34] relates to PC-3. The experiment in a line: Antitumor activity against human PC3 cells xenografted in CB17 SCID mouse assessed as tumor growth inhibition at 50 mg/kg, po qd administered on day 11 post tumor implantation measured after 32 days relative to vehicle-treated control. The format is functional. As to conditions: read-out: TGI.
The nature of data set [35]: Plasma protein binding in CB17 SCID mouse xenografted with human PC3 cells at 30 mg/kg, po qd after 24 hrs. The format is ADME, organism-based, PC-3. Also on record: dose 30 mg/kg, route oral. The note with it: read-out: PPB (converted).
Data set [36] can be described thus: Plasma concentration in CB17 SCID mouse xenografted with human PC3 cells at 30 mg/kg, po qd at 4 hrs. The data set is classed as ADME, organism-based, PC-3. Also on record: dose 30 mg/kg, route oral.
The target of data set [37] is Insulin receptor (Homo sapiens) (UniProt P06213). The experiment in a line: Inhibition of IRK1 (unknown origin) assessed as remaining activity at 10 uM relative to control.
Chain of Insulin receptor (Homo sapiens) (P06213 whole entry, looked up): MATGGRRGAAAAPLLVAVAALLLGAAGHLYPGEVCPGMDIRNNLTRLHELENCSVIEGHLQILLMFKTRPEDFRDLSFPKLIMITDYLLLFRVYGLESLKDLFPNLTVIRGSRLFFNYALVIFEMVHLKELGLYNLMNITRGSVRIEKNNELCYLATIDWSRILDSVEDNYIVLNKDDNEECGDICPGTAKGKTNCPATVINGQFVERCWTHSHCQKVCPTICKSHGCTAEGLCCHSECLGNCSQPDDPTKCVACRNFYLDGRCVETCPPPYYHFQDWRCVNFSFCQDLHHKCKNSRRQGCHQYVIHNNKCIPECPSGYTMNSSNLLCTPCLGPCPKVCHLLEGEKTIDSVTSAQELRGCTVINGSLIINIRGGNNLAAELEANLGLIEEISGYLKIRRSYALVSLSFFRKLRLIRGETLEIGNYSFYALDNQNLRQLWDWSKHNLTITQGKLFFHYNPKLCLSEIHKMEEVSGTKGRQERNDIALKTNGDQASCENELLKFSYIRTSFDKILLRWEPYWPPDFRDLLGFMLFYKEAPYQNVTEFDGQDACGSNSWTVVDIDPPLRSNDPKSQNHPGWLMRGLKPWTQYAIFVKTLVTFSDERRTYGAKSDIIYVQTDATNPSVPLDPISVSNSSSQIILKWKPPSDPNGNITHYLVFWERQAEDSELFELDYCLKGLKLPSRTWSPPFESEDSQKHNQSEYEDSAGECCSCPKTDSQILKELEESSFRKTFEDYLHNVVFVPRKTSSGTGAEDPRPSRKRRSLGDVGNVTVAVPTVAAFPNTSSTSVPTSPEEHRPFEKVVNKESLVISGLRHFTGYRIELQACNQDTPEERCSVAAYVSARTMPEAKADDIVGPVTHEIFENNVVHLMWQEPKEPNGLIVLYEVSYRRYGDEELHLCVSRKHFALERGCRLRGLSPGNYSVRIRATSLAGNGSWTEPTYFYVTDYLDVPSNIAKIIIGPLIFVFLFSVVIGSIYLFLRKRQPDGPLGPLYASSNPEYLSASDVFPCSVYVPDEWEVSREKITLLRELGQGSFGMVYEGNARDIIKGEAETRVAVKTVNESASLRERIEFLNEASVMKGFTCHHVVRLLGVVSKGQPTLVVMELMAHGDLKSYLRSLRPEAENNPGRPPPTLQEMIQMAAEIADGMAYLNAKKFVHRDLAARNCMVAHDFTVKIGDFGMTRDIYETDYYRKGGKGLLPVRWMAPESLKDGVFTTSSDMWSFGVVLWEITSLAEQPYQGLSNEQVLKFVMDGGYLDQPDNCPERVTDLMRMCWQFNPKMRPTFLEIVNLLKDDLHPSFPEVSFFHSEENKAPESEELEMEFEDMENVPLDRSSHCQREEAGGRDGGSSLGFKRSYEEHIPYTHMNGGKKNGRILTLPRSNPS

Chain of Phosphatidylinositol 4,5-bisphosphate 3-kinase catalytic subunit alpha isoform (P42336 whole entry, canonical isoform): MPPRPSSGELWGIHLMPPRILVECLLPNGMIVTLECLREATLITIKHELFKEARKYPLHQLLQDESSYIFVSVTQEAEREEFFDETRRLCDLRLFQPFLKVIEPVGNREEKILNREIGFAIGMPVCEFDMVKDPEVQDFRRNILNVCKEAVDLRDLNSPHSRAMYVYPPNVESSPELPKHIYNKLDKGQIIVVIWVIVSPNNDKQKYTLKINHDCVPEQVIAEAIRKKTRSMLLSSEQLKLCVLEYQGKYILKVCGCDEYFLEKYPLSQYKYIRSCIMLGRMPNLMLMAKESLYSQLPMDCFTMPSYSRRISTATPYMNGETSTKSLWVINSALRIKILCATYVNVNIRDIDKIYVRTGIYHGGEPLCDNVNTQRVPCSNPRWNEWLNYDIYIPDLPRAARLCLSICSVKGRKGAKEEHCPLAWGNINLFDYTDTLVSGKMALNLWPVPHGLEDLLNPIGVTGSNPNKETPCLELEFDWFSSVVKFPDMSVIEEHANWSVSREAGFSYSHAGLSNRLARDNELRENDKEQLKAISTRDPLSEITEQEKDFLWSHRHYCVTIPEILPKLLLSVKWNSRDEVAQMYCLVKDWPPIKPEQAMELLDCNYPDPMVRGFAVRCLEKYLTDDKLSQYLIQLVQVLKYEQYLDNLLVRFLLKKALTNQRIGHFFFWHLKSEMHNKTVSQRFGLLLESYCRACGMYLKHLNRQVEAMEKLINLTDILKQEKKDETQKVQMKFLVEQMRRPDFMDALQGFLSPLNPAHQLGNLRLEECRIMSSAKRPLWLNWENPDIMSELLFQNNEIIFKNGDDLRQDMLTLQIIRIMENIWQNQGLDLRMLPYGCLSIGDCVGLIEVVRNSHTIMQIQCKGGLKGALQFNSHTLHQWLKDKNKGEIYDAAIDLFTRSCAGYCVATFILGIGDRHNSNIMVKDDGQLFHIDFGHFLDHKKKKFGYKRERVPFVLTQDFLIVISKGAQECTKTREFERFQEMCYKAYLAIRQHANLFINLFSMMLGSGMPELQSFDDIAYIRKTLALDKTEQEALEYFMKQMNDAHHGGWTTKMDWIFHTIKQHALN

Turning to `CC(C)(O)c1ccc(-c2cnc3[nH]c(=O)n(CC4CCOCC4)c3n2)cn1`, the IC50 in [1] was > 30000 nM; with PC-3 [2] it was 4180 nM; on mTORC1, 2410 nM; in data set [3] it was 2550 nM.
As for `CC(C)(O)c1ccc(-c2cnc3c(n2)N(CC2CCOCC2)CC(=O)N3)cn1`, the inhibition in vivo at 30 mg/kg turned out to be 53% with Mus musculus [4], 28% in the data set with Mus musculus [6], 43% in the data set with Mus musculus [8] and 87% with Mus musculus [33]. Moreover, the “Cp(f)” value amounted to 1860 nM with Plasma [5], 2390 nM with Plasma [9], 850 nM in the data set on Plasma [11] and 70 nM in the data set with Plasma [12]. The IC50 in [1] was > 30000 nM. This molecule showed a Cmax in data set [7] of 3300 nM. For the same molecule, the concentration at 8 h was determined as 1760 nM in [10] and 2420 nM in data set [19]. In addition, in the data set with Mus musculus [13], the Activity result is “Non-toxic”. The concentration at 4 h in data set [14] came to 2870 nM; in data set [36] it was 5320 nM. In data set [15], the bioavailability stood at 100%. For the same molecule, the area under the curve AUC(0-inf) in data set [16] was determined as 28 µM·h; in [28], 10.8 µM·h. The molecule also had a clearance in data set [17] of 8.1 mL/min/kg. The TGI entry in the data set with PC-3 [18], in the data set on PC-3 [21] and with PC-3 [23] was “Active” throughout. Further, the concentration at 24 h in data set [20] and in data set [24] was 190 nM in each case. Further, the concentration at 2 h is 6830 nM in data set [22] and 4100 nM in data set [25]. The molecule also gave an MRT in data set [26] of 2.7 h. Further, the inhibition in vivo at 25 mg/kg with PC-3 [27] was 63%. Besides, in data set [29], the Vd was found to be 1.3 L/kg. Moreover, the TGI result with PC-3 [30] was “Dose-dependent effect”. Besides, the time to peak (Tmax) in [31] is 1.2 h. The inhibition in vivo at 10 mg/kg in the data set with PC-3 [32] was determined as 18%. Also, the inhibition in vivo at 50 mg/kg in the data set on PC-3 [34] is 84%. Moreover, the fraction unbound at 24 h in data set [35] was 0.35.
In turn, `O=C1CN(CCC2CCOCC2)c2nc(-c3ccc(-c4nc[nH]n4)cc3)cnc2N1` displayed a bioavailability in data set [15] of 0%. This molecule returned an IC50 in the data set with PC-3 [2] of 148 nM.
As to `O=c1[nH]c2ncc(-c3ccc(-c4nc[nH]n4)cc3)nc2n1CCC1CCOCC1`, the activity at 10 µM in data set [37] was 93%. In [15], this molecule displayed a bioavailability of 0.85%. Further, the IC50 with PC-3 [2] stood at 224 nM; on mTORC1, 40 nM; in data set [3], 18 nM.
